In PMC2851645, “An Odorant Receptor from the Southern House Mosquito Culex pipiens quinquefasciatus Sensitive to Oviposition Attractants” (PLoS ONE, 2010):
Entries after “also recorded” stand apart in the source; their conditions may differ. Like-named read-outs stand apart in the source and are kept apart here.

How the values were obtained:
CquiOR2 + CquiOR7 = CquiOR2 + CquiOR7 (Culex quinquefasciatus, UniProt D5LMR6); assay: Two-electrode voltage clamp of Xenopus oocytes expressing CquiOR2 + CquiOR7; format: cell-based; conditions: for nH (Hill coefficient): Hill fit of concentration-response data, 5–16 oocytes; for relative efficacies (maximal responses) compared with indole: in words; for Emax: read-out: Relative Efficacy; for current response in panel screen: each compound applied for 20 s at 10 µM
CquiOR2 + CquiOR7, sequence (Q309I4 entry or part of it): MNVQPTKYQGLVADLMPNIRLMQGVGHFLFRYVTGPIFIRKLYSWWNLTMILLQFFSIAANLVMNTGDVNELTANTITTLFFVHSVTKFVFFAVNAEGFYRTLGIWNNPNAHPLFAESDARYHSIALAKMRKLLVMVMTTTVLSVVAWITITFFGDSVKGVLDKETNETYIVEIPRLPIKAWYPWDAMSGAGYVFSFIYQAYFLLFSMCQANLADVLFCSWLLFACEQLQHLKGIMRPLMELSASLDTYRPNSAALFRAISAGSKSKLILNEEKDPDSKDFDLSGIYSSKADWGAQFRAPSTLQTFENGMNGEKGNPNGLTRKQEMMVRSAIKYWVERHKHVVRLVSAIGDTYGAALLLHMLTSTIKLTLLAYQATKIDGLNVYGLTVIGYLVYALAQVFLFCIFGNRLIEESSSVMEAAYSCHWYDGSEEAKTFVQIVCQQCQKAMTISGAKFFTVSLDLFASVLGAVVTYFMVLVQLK
CquiOR2 + CquiOR7, sequence (D5LMR6 entry or part of it): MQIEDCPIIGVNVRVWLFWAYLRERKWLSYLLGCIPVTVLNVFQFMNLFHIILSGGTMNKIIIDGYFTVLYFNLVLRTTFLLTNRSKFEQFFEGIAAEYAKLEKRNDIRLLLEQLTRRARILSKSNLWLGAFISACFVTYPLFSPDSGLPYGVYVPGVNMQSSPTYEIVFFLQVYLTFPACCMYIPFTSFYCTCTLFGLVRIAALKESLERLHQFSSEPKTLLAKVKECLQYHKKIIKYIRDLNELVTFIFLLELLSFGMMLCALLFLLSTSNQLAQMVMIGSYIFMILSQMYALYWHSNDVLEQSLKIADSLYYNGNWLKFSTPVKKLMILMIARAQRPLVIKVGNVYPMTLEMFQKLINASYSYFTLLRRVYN
Procedure: Oocytes were surgically removed from mature Xenopus laevis frogs (Nasco). The care and use of Xenopus laevis frogs in this study were approved by the University of Miami Animal Research Committee and meet the guidelines of the National Institutes of Health. Follicle cells were removed by treatment with Collagenase B (Boehringer Mannhem) for 2 h at room temperature. CquiOR2 and CquiOR7 were transferred into pGEMHE [27]. Capped cRNA encoding each OR subunit was generated using mMessage mMachine kits (Ambion). 25 ng of cRNA encoding each OR subunit was injected into Stage V-VI Xenopus oocytes. Oocytes were incubated at 18°C in Barth's saline (in mM: 88 NaCl, 1 KCl, 2.4 NaHCO3, 0.3 CaNO3, 0.41 CaCl2, 0.82 MgSO4, 15 HEPES, pH 7.6, and 100 µg/ml amikacin) for 2–5 days prior to electrophysiological recording.
Odorant-induced currents were recorded under two-electrode voltage clamp from oocytes expressing ORs, using an automated parallel electrophysiology system (OpusXpress 6000A; Molecular Devices). Oocytes were perfused with ND96 (in mM: 96 NaCl, 2 KCl, 1 CaCl2, 1 MgCl2, 5 HEPES, pH 7.5). […] Micropipettes were filled with 3 M KCl and had resistances of 0.2–2.0 MΩ. The holding potential was −70 mV. Current responses were filtered (4-pole, Bessel, low pass) at 20 Hz (-3 db), sampled at 100 Hz and were captured and stored using OpusXpress 1.1 software (Molecular Devices). Initial analysis of electrophysiological data was done using Clampfit 9.1 software (Molecular Devices). Curve fitting of concentration-response data was done using Prism 4 (Graphpad). Concentration-response data were fit to the equation: I = Imax/(1+(EC50/X)^n) where I represents the current response at a given concentration of odorant, X; Imax is the maximal response; EC50 is the concentration of odorant yielding a half maximal response; n is the apparent Hill coefficient.

[1] = system: ORN-B in the blunt-tipped trichoid sensilla A2; set-up: method as in PMID 19858490; conditions: cited from earlier work; for excitatory response of ORN-B: compounds tested individually
AgamOR2 = system: AgamOR2; set-up: method as in PMID 20130575, PMID 20160092, PMID 14724626, PMID 18427108; conditions: cited from earlier work
gravid Culex mosquitoes = system: gravid Culex mosquitoes; set-up: method as in PMID 18725946, PMID 10083752, PMID 1583482, PMID 15274442; conditions: indoor bioassays and field tests; cited from earlier work
AgamOR10 = system: AgamOR10; set-up: method as in PMID 20130575, PMID 20160092, PMID 18427108; conditions: cited from earlier work
[2] = 20 s applications, Hill fit, mean ± SEM, 5–16 separate oocytes, read-out: EC50
[3] = maximum value from fit, as percentage of the maximum value for indole, mean ± SEM

Structure (SMILES) | EC50 (CquiOR2 + CquiOR7; [2]) [µM] | nH (Hill coefficient) (CquiOR2 + CquiOR7; mean ± SEM) | relative efficacies (maximal responses) compared with indole (CquiOR2 + CquiOR7) | Emax (CquiOR2 + CquiOR7; [3]) [%] | also measured
Cc1cccc(O)c1 [3-methylphenol] |  |  |  |  | response threshold compared with 2-methylphenol [1]: three orders of magnitude higher
c1ccc2[nH]ccc2c1 [Indole] |  | 0.8±0.2 |  |  | response of AgamOR2 (AgamOR2): strongly respond; attraction of gravid Culex mosquitoes (gravid Culex mosquitoes): attractants; excitatory response of ORN-B [1]: strongest dose-dependent responses; selectivity for indole over methylindoles ([1]; single sensillum recordings from A2): three orders of magnitude selectivity; EC50 (CquiOR2 + CquiOR7): 0.28 ± 0.12 µM; selectivity for indole over the various methylindoles (CquiOR2 + CquiOR7; Xenopus oocyte system): 10- to 70 fold; current response in panel screen (CquiOR2 + CquiOR7): largest current responses; Emax (CquiOR2 + CquiOR7): 100%; response of AgamOR10 (AgamOR10): strongly respond
Cn1ccc2ccccc21 [1-Methylindole] |  | 1.3±0.5 |  |  | EC50 (CquiOR2 + CquiOR7): 20 ± 6 µM; Emax (CquiOR2 + CquiOR7): 84 ± 9%
Cc1ccccc1O [2-Methylphenol] |  | 1.0±0.2 | lower relative efficacies than indole |  | response of AgamOR2 (AgamOR2): strongly respond; excitatory response of ORN-B [1]: eliciting the strongest response; EC50 (CquiOR2 + CquiOR7): 7.3 ± 1.5 µM; current response in panel screen (CquiOR2 + CquiOR7): responded well; also recorded: best responses for phenolic compounds; Emax (CquiOR2 + CquiOR7): 70 ± 9%
Cc1ccc(O)cc1 [4-methylphenol] |  |  |  |  | response threshold compared with 2-methylphenol [1]: three orders of magnitude higher; response of AgamOR10 (AgamOR10): strongly respond

Now from value to molecule, other results behind:

EC50 (CquiOR2 + CquiOR7; [2]) [µM] | nH (Hill coefficient) (CquiOR2 + CquiOR7; mean ± SEM) | relative efficacies (maximal responses) compared with indole (CquiOR2 + CquiOR7) | Emax (CquiOR2 + CquiOR7; [3]) [%] | Structure (SMILES) | also measured
3.6 ± 0.8 | 1.0±0.2 | lower relative efficacies than indole | 60 ± 4 | Cc1cccc2[nH]ccc12 [4-Methylindole] | 
7.5 ± 4.1 | 0.9±0.4 |  | 106 ± 16 | Cc1cc2ccccc2[nH]1 [2-Methylindole] | 
20 ± 6 | 0.9±0.2 |  | 92 ± 8 | Cc1c[nH]c2ccccc12 [3-Methylindole] | response of AgamOR2 (AgamOR2): strongly respond; attraction of gravid Culex mosquitoes (gravid Culex mosquitoes): attractants; response of AgamOR10 (AgamOR10): strongly respond
18 ± 3 | 1.1±0.2 | lower relative efficacies than indole | 67 ± 4 | Cc1cccc2cc[nH]c12 [7-Methylindole] | 
8.6 ± 2 | 1.1±0.2 | lower relative efficacies than indole | 59 ± 4 | Cc1ccc2[nH]ccc2c1 [5-Methylindole] | 
3 ± 0.6 | 0.9±0.2 | lower relative efficacies than indole | 69 ± 4 | Cc1ccc2cc[nH]c2c1 [6-Methylindole] | 
